Data reported in article PMC7055211 (Scientific Reports, 2020).

System: Mahoney strain of poliovirus
Assay type: cell-based, Poliovirus Type I Mahoney
Conditions: 293 T; infectivity; PFU

Compound: COc1ccc2[nH]c([S+]([O-])Cc3ncc(C)c(OC)c3C)nc2n1 (stereo not shown) [Tenatoprazole, tenatoprazole]
- Virus Production (resistant or susceptible), PV: Resistant
